Source: patent EP0118120A2, “1,4-Dihydropyridine compound” (priority 1983, dated 1984)

Assays:
[1] = test system: liver disorder induced by carbon tetrachloride; assay: Effect on liver disorder induced by carbon tetrachloride in rats, serum GOT, GPT, AlP, bilirubin (Example 26); type: in vivo, SLC-Wistar male rats
Experimental: (§1) Effect of the compounds according to the present invention on liver disorder induced by carbon tetrachloride
(§2) The effects of the sample compounds to be tested on hepatic disorder were evaluated by determining the levels of GOT, GPT, AlP, and bilirubin, which are known as an indicator of hepatic disorder, in serum, after administering carbon tetrachloride and the sample compounds to SLC-Wistar male rats (9 weeks old and body weight of 210 to 250 g in Tables 1, 3, and 4, and 10 weeks old and body weight of 230 to 260 g in Table 2) as follows.
(§3) Five rats were used in each test group. The sample compound (i.e., each compound listed below) was suspended at a concentration of 40 mg/ml in a 0.1% aqueous solution of Tween-80 (i.e., nonionic surfactant available from Atlas Powder Co., Ltd.). The resultant suspension was orally administered at a dose of 200 mg/kg each at 25 hours and 1 hour before the administration of carbon tetrachloride, except for the control group. For the control group to which only carbon tetrachloride was administered in the evaluation test, a 0.1% aqueous Tween-80 was orally administered at a dose of 5 ml/kg in the same manner.
(§4) Carbon tetrachloride was intraperiotoneally administered as a 10% olive oil solution at a dose of 5 ml/kg (0.5 ml/kg in terms of CC14) one hour after the final administration of the sample compound. For the control (normal) group, olive oil was intraperitoneally administered in the same manner at a dose of 5 ml/kg.
(§5) Blood samples were collected from the carotid artery under pentobarbital anesthesia, 24 hours after the administration of carbon tetrachloride. The rats were fasted for 18 to 22 hours before collecting the blood samples.
(§6) The determination of GOT and GPT in serum was carried out according to a UV method, the determination of AlP was carried cut according to Bessy-Lowry method, and the determination of bilirubin was carried out according to a diazo method.

[2] = Acute toxicity, oral LD50 in rats (Example 28); conditions: rat, in vivo, male rats 5 weeks old, 130 to 150 g, observed for one week
Text: Acute toxicity of the compounds according to the present invention

[3] = test system: liver disorder induced by carbon tetrachloride; assay: Effect on liver disorder induced by carbon tetrachloride in rats, repeat with 8 weeks old rats (Example 27); type: in vivo, SLC-Wistar male rats; conditions: serum 24 hours after CCl4, 200 mg/kg orally x2, rats 8 weeks old
Experimental: as §2, §3, §4, §5, §6, §1
The evaluation tests of Example 26 were repeated except that SLC-Wistar male rats (8 weeks old and body weight of 170 to 210 g) were used.

[4] = Table 1, serum 24 hours after CCl4 0.5 ml/kg i.p., compound 200 mg/kg orally 25 hours and 1 hour before CCl4, rats 9 weeks old, CCl4 only 17327 ± 2336, normal 76 ± 1
[5] = Table 1, serum 24 hours after CCl4, 200 mg/kg orally x2, rats 9 weeks old, CCl4 only 0.62 ± 0.30, normal 0.10 ± 0.00
[6] = Table 1, serum 24 hours after CCl4, 200 mg/kg orally x2, rats 9 weeks old, CCl4 only 35.5 ± 2.5, normal 23.6 ± 0.4
[7] = Table 1, serum 24 hours after CCl4, 200 mg/kg orally x2, rats 9 weeks old, CCl4 only 10496 ± 1221, normal 31 ± 2
[8] = Table 4, serum 24 hours after CCl4, 200 mg/kg orally x2, rats 9 weeks old, CCl4 only 0.38 ± 0.04, normal 0.10 ± 0.00
[9] = Table 4, serum 24 hours after CCl4, 200 mg/kg orally x2, rats 9 weeks old, CCl4 only 35.0 ± 2.0, normal 24.4 ± 0.7
[10] = Table 4, serum 24 hours after CCl4, 200 mg/kg orally x2, rats 9 weeks old, CCl4 only 10523 ± 2313, normal 31 ± 3
[11] = Table 4, serum 24 hours after CCl4, 200 mg/kg orally x2, rats 9 weeks old, CCl4 only 17704 ± 4140, normal 76 ± 4
[12] = Table 3, serum 24 hours after CCl4, 200 mg/kg orally x2, rats 9 weeks old, CCl4 only 0.38 ± 0.06, normal 0.22 ± 0.04
[13] = Table 3, serum 24 hours after CCl4, 200 mg/kg orally x2, rats 9 weeks old, CCl4 only 34.4 ± 2.6, normal 27.0 ± 0.5
[14] = Table 3, serum 24 hours after CCl4, 200 mg/kg orally x2, rats 9 weeks old, CCl4 only 9188 ± 1815, normal 30 ± 2
[15] = Table 3, serum 24 hours after CCl4, 200 mg/kg orally x2, rats 9 weeks old, CCl4 only 13189 ± 2205, normal 81 ± 3
[16] = Table 5, 170 to 210 g, CCl4 only 27875 ± 3628, normal 78 ± 3
[17] = Table 5, CCl4 only 0.55 ± 0.16, normal 0.10 ± 0.00
[18] = Table 5, CCl4 only 41.3 ± 2.5, normal 25.7 ± 0.4
[19] = Table 5, CCl4 only 12984 ± 1465, normal 30 ± 3

CC(=O)C1=C(C)NC(C)=C(C#N)C1C1=COCCO1 (centres unmarked) [Sample Compound B, 3-acetyl-5-cyano-4-[2-(5,6-dihydro-p-dioxinyl)]-2,6-dimethyl-l,4-dihydropyridine]
GOT [1, 4]: 1604 ± 569 K.U. | Bilirubin [1, 5]: 0.20 ± 0.00 mg/dL | AlP [1, 6]: 34.1 ± 3.4 K-AU. | GPT [1, 7]: 1023 ± 368 K.U.

COC(=O)C1=C(C)NC(C)=C(C#N)C1C1=COCCO1 (centres unmarked) [Sample Compound C, methyl 5-cyano-4-[2-(5,6-dihydro-p-dioxinyl)]-2,6-dimethyl-1,4-dihydropyridine-3-carboxylate]
GOT ([1]; Table 2, serum 24 hours after CCl4, 200 mg/kg orally x2, rats 10 weeks old, 230 to 260 g, CCl4 only 20701 ± 2821, normal 89 ± 12): 1447 ± 313 K.U. | Bilirubin ([1]; Table 2, serum 24 hours after CCl4, 200 mg/kg orally x2, rats 10 weeks old, CCl4 only 0.40 ± 0.09, normal 0.10 ± 0.00): 0.20 ± 0.00 mg/dL | AlP ([1]; Table 2, serum 24 hours after CCl4, 200 mg/kg orally x2, rats 10 weeks old, CCl4 only 32.3 ± 2.8, normal 22.7 ± 0.6): 31.7 ± 3.2 K-AU. | GPT ([1]; Table 2, serum 24 hours after CCl4, 200 mg/kg orally x2, rats 10 weeks old, CCl4 only 11034 ± 1354, normal 41 ± 3): 912 ± 198 K.U.

COCC(C)OC(=O)C1=C(C)NC(C)=C(C(=O)OC(C)COC)C1C1=COCCO1 (centres unmarked) [Sample Compound D, bis(1-methyl-2-methoxyethyl) 4-[2-(5,6-dihydro-p-dioxinyl)]-2,6-dimethyl-l,4-dihydropyridine-3,5-dicarboxylate]
GOT [1, 4]: 2572 ± 518 K.U. | Bilirubin [1, 5]: 0.20 ± 0.00 mg/dL | AlP [1, 6]: 31.0 ± 1.5 K-AU. | GPT [1, 7]: 2050 ± 419 K.U.

CC1=C(C(=O)OC(C)C)C(C2=COCCO2)C(C(=O)OC(C)C)=C(C)N1 [Sample Compound G]
Bilirubin [1, 8]: 0.22 ± 0.02 mg/dL | AlP [1, 9]: 31.5 ± 1.2 K-AU. | GPT [1, 10]: 2994 ± 638 K.U. | GOT [1, 11]: 3482 ± 707 K.U.

C=CCOC(=O)C1=C(C)NC(C)=C(C(=O)OCC=C)C1C1=COCCO1 [Sample Compound H, diallyl 4-[2-(5,6-dihydro-p-dioxinyl)]-2,6-dimethyl-l,4-dihydropyridine-3,5-dicarboxylate]
Bilirubin [1, 8]: 0.22 ± 0.04 mg/dL | AlP [1, 9]: 29.5 ± 2.4 K-AU. | GPT [1, 10]: 1453 ± 699 K.U. | GOT [1, 11]: 1920 ± 881 K.U. | LD50 at 168 h [2]: > 1000 mg/kg

C#CCOC(=O)C1=C(C)NC(C)=C(C(=O)OCC#C)C1C1=COCCO1 [Sample Compound I, dipropargyl 4-[2-(5,6-dihydro-p-dioxinyl)]-2,6-dimethyl-l,4-dihydropyridine-3,5-dicarboxylate]
Bilirubin [1, 8]: 0.22 ± 0.02 mg/dL | AlP [1, 9]: 27.6 ± 1.8 K-AU. | GPT [1, 10]: 2110 ± 228 K.U. | GOT [1, 11]: 2925 ± 380 K.U. | LD50 at 168 h [2]: > 2000 mg/kg

COC(=O)C1=C(C)NC(C)=C(C(=O)OC(C)C)C1C1=COCCO1 (centres unmarked) [Sample Compound K, isopropyl methyl 4-[2-(5,6-dihydro-p-dioximyl)]-2,6-dimethyl-1,4-dihydropyridine-3,5-dicarboxylate]
Bilirubin [1, 8]: 0.24 ± 0.02 mg/dL | AlP [1, 9]: 29.6 ± 0.8 K-AU. | GPT [1, 10]: 1657 ± 436 K.U. | GOT [1, 11]: 2290 ± 619 K.U.

COC(=O)C1=C(C)NC(C)=C(C(C)=O)C1C1=COCCO1 (centres unmarked) [Sample Compound M, methyl 5-acetyl-4-[2-(5,6-dihydro-p-dioxinyl)]-2,6-dimethyl-l,4-dihydropyridine-3-carboxylate]
Bilirubin [1, 8]: 0.20 ± 0.00 mg/dL | AlP [1, 9]: 29.1 ± 1.1 K-AU. | GPT [1, 10]: 428 ± 88 K.U. | GOT [1, 11]: 807 + 176 K.U.

COCCOC(=O)C1=C(C)NC(C)=C(C(C)=O)C1C1=COCCO1 (centres unmarked) [Sample Compound N, 2-methoxyethyl 5-acetyl-4-[2-(5,6-dihydro-p-dioxinyl)]-2,6-dimethyl-1,4-dihydropyridine-3-carboxylate]
Bilirubin [1, 8]: 0.18 ± 0.02 mg/dL | AlP [1, 9]: 28.5 ± 1.7 K-AU. | GPT [1, 10]: 2860 ± 858 K.U. | GOT [1, 11]: 3430 ± 922 K.U.

CC(=O)C1=C(C)NC(C)=C(C(C)=O)C1C1=COCCC1 [Sample Compound P, 3,5-diacetyl-4-[5-(3,4-dihydro-2H-pyranyl)]-2,6-dimethyl-1,4-dihydropyridine]
Bilirubin [1, 12]: 0.32 ± 0.02 mg/dL | AlP [1, 13]: 35.1 ± 1.4 K-AU. | GPT [1, 14]: 616 ± 193 K.U. | GOT [1, 15]: 899 ± 252 K.U.

CC(=O)C1=C(C)NC(C)=C(C(C)=O)C1C1=CSCCS1 [Sample Compound Q, 3,5-diacetyl-4-[2-(5,6-dihydro-1,4-dithiinyl)]-2,6-dimethyl-1,4-dihydropyridine]
Bilirubin [1, 12]: 0.26 ± 0.02 mg/dL | AlP [1, 13]: 29.8 ± 1.3 K-AU. | GPT [1, 14]: 1891 ± 357 K.U. | GOT [1, 15]: 2583 ± 540 K.U.

COCOC(=O)C1=C(C)N(COC)C(C)=C(C(=O)OCOC)C1C1=COCCO1 [Sample Compound S, bis(methoxymethyl) 4-[2-(5,6-dihydro-p-dioxinyl)]-1-methoxymethyl-2,6-dimethyl-1,4-dihydropyridine-3,5-dicarboxylate]
GOT [3, 16]: 461 ± 162 K.U. | Bilirubin [3, 17]: 0.10 ± 0.00 mg/dL | AlP [3, 18]: 26.3 ± 0.8 K-AU. | GPT [3, 19]: 313 ± 120 K.U.

COC(=O)C1=C(C)NC(C)=C(C(=O)OC)C1C1=C(C)OC(C)CO1 (centres unmarked) [Sample Compound T, dimethyl 2,6-dimethyl-4-[2-(3,5-dimethyl-5,6-dihydro-p-dioxinyl)] -1,4-dihydropyridine-3,5-dicarbcxylate]
GOT [3, 16]: 5538 ± 954 K.U. | Bilirubin [3, 17]: 0.25 ± 0.03 mg/dL | AlP [3, 18]: 34.4 ± 1.7 K-AU. | GPT [3, 19]: 4156 ± 196 K.U.

COCOC(=O)C1=C(C)NC(C)=C(C(=O)OCOC)C1C1=C(C)OC(C)CO1 (centres unmarked) [Sample Compound U, bis (methcxymethyl) 2,6-dimethyl-4-[2-(3,5-dimethyl-5,6-dihydro-p-dioxinyl)]-1,4-dihydropyridine-3,5-dicarboxylate]
GOT [3, 16]: 608 ± 214 K.U. | Bilirubin [3, 17]: 0.10 ± 0.00 mg/dL | AlP [3, 18]: 27.0 ± 1.0 K-AU. | GPT [3, 19]: 384 ± 135 K.U.

CC(=O)C1=C(C)NC(C)=C(C(C)=O)C1C1=C(C)OCCO1 [Sample Compound W, 3,5-diacetyl-2,6-dimethyl-4-[2-(3-methyl-5,6-dihydro-p-dioxinyl)]-1,4-dihydropyridine]
Bilirubin ([3]; Table 6, CCl4 only 0.50 ± 0.08, normal 0.12 ± 0.02): 0.20 ± 0.00 mg/dL | AlP ([3]; Table 6, CCl4 only 52.5 ± 2.2, normal 36.3 ± 1.6): 49.5 ± 3.0 K-AU. | GPT ([3]; Table 6, CCl4 only 12606 ± 1688, normal 39 ± 4): 805 ± 195 K.U. | GOT ([3]; Table 6, CCl4 only 23424 ± 3360, normal 79 ± 2): 1194 ± 234 K.U.
